Where two headings read alike, the source gives them in different places.
What was measured:
[1] = test system: Meloidogyne incognita eggs; test: M. incognita egg hatching; type: in vivo
Description: Meloidogyne incognita (plant parasitic nematode) eggs were collected from tomato plant roots and were suspended in water. The solution was either diluted or concentrated to adjust the egg load to about 5000/ml. AT stock solutions prepared in DMSO and 300 ul of test solution was placed in a well, along with 20 ul of aqueous solution containing eggs. The number of eggs in 20 ul solution ranged from 115 to 143 (n=10). Each treatment (2, 5, 10, 20, or 40 ppm) was replicated 5 times. Microplates were sealed with Parafilm™ and incubated at room temperature. Similar tests conducted with 0.2% DMSO alone served as controls. Egg hatching was monitored at 24, 72, 120, and 168 hr after incubation. Both moving and non-moving nematodes were counted to arrive at the number of eggs hatched. Proportion of egg hatch was calculated as the number of juveniles divided by total number of eggs.
VSCC blockers effect on M. incognita egg hatching is shown in the following tables where % hatched is rounded to the nearest percentage point and where “% C*” is % hatch, normalized to control.

Meloidogyne incognita = test: Toxicity test, J2 juveniles of Meloidogyne incognita, 96 well micro plate; type: in vivo; conditions: Meloidogyne incognita
Description: Methodology: Toxicity tests were conducted using J2 juveniles of Meloidogyne incognita adult Caenorhabditis elegans collected from nematode-infested tomato plant roots and culture Petri plates, respectively. Test concentrations of 50, 100, 200, 300, or 400 ppm were prepared in 0.2% dimethylsulfoxide (DMSO) in tap water. Aliquots (300 microliters (ul)) were applied to a 96 well micro plate and a 20 ul aqueous solution containing nematodes was added. The number of nematodes in 20 ul ranged from 17 to 30. Micro plates were sealed with Parafilm™ and incubated at room temperature. Similar tests conducted with 0.2% DMSO in tap water served as controls. Nematode mortality was checked at 24, 48, 72, 120, and 168 hr after incubation. Nematodes that were motionless for 30 sec when observed under a stereomicroscope were considered paralyzed and included in mortality counts. Each concentration was replicated five times and mean percent mortality was calculated after correcting for control mortality using Abbott's formula.
Data Analysis: Mortality data were analyzed using PROC PROBIT (SAS) program and LC50 values were estimated.

[2] = 24 h, read-out: Corrected Mortality (%)
[3] = 48 h, read-out: Corrected Mortality (%)
[4] = 72 h, read-out: Corrected Mortality (%)
[5] = 120 h, read-out: Corrected Mortality (%)
[6] = 168 h, read-out: Corrected Mortality (%)

O=C(O)c1c2ccccc2cc2ccccc12 [9-AC, anthracene-9-carboxylic acid]
Eggs Hatched % ([1]; 2 ppm, 24 hr): 10% | Eggs Hatched % C* (% hatch, normalized to control) ([1]; 2 ppm, 24 hr): 100% | Eggs Hatched No. ([1]; 2 ppm, 24 hr): 65 | Eggs Hatched % ([1]; 2 ppm, 72 hr): 15% | Eggs Hatched % C* (% hatch, normalized to control) ([1]; 2 ppm, 72 hr): 94% | Eggs Hatched No. ([1]; 2 ppm, 72 hr): 101 | Eggs Hatched % ([1]; 2 ppm, 120 hr): 20% | Eggs Hatched % C* (% hatch, normalized to control) ([1]; 2 ppm, 120 hr): 91% | Eggs Hatched No. ([1]; 2 ppm, 120 hr): 134 | Eggs Hatched % ([1]; 2 ppm, 168 hr): 25% | Eggs Hatched % C* (% hatch, normalized to control) ([1]; 2 ppm, 168 hr): 91% | Eggs Hatched No. ([1]; 2 ppm, 168 hr): 167 | Eggs Hatched % ([1]; 5 ppm, 24 hr): 9% | Eggs Hatched % C* (% hatch, normalized to control) ([1]; 5 ppm, 24 hr): 90% | Eggs Hatched No. ([1]; 5 ppm, 24 hr): 67 | Eggs Hatched % ([1]; 5 ppm, 72 hr): 14% | Eggs Hatched % C* (% hatch, normalized to control) ([1]; 5 ppm, 72 hr): 87% | Eggs Hatched No. ([1]; 5 ppm, 72 hr): 98 | Eggs Hatched % ([1]; 5 ppm, 120 hr): 18% | Eggs Hatched % C* (% hatch, normalized to control) ([1]; 5 ppm, 120 hr): 82% | Eggs Hatched No. ([1]; 5 ppm, 120 hr): 129 | Eggs Hatched % ([1]; 5 ppm, 168 hr): 22% | Eggs Hatched % C* (% hatch, normalized to control) ([1]; 5 ppm, 168 hr): 79% | Eggs Hatched No. ([1]; 5 ppm, 168 hr): 155 | Eggs Hatched % ([1]; 10 ppm, 24 hr): 9% | Eggs Hatched % C* (% hatch, normalized to control) ([1]; 10 ppm, 24 hr): 90% | Eggs Hatched No. ([1]; 10 ppm, 24 hr): 62 | Eggs Hatched % ([1]; 10 ppm, 72 hr): 13% | Eggs Hatched % C* (% hatch, normalized to control) ([1]; 10 ppm, 72 hr): 81% | Eggs Hatched No. ([1]; 10 ppm, 72 hr): 90 | Eggs Hatched % ([1]; 10 ppm, 120 hr): 17% | Eggs Hatched % C* (% hatch, normalized to control) ([1]; 10 ppm, 120 hr): 77% | Eggs Hatched No. ([1]; 10 ppm, 120 hr): 118 | Eggs Hatched % ([1]; 10 ppm, 168 hr): 20% | Eggs Hatched % C* (% hatch, normalized to control) ([1]; 10 ppm, 168 hr): 71% | Eggs Hatched No. ([1]; 10 ppm, 168 hr): 141 | Eggs Hatched % ([1]; 20 ppm, 24 hr): 9% | Eggs Hatched % C* (% hatch, normalized to control) ([1]; 20 ppm, 24 hr): 90% | Eggs Hatched No. ([1]; 20 ppm, 24 hr): 59 | Eggs Hatched % ([1]; 20 ppm, 72 hr): 12% | Eggs Hatched % C* (% hatch, normalized to control) ([1]; 20 ppm, 72 hr): 75% | Eggs Hatched No. ([1]; 20 ppm, 72 hr): 80 | Eggs Hatched % ([1]; 20 ppm, 120 hr): 15% | Eggs Hatched % C* (% hatch, normalized to control) ([1]; 20 ppm, 120 hr): 68% | Eggs Hatched No. ([1]; 20 ppm, 120 hr): 102 | Eggs Hatched % ([1]; 20 ppm, 168 hr): 18% | Eggs Hatched % C* (% hatch, normalized to control) ([1]; 20 ppm, 168 hr): 64% | Eggs Hatched No. ([1]; 20 ppm, 168 hr): 122 | Eggs Hatched % ([1]; 40 ppm, 24 hr): 9% | Eggs Hatched % C* (% hatch, normalized to control) ([1]; 40 ppm, 24 hr): 90% | Eggs Hatched No. ([1]; 40 ppm, 24 hr): 60 | Eggs Hatched % ([1]; 40 ppm, 72 hr): 12% | Eggs Hatched % C* (% hatch, normalized to control) ([1]; 40 ppm, 72 hr): 75% | Eggs Hatched No. ([1]; 40 ppm, 72 hr): 76 | Eggs Hatched % ([1]; 40 ppm, 120 hr): 14% | Eggs Hatched % C* (% hatch, normalized to control) ([1]; 40 ppm, 120 hr): 64% | Eggs Hatched No. ([1]; 40 ppm, 120 hr): 94 | Eggs Hatched % ([1]; 40 ppm, 168 hr): 15% | Eggs Hatched % C* (% hatch, normalized to control) ([1]; 40 ppm, 168 hr): 54% | Eggs Hatched No. ([1]; 40 ppm, 168 hr): 103 | mortality at 50 ppm (Meloidogyne incognita; 24 h): 11% | mortality at 100 ppm (Meloidogyne incognita; 24 h): 12% | mortality at 200 ppm (Meloidogyne incognita; 24 h): 13% | mortality at 300 ppm (Meloidogyne incognita; 24 h): 16% | mortality at 400 ppm (Meloidogyne incognita; 24 h): 23% | mortality at 50 ppm (Meloidogyne incognita; [2]): 10% | mortality at 100 ppm (Meloidogyne incognita; [2]): 11% | mortality at 200 ppm (Meloidogyne incognita; [2]): 12% | mortality at 300 ppm (Meloidogyne incognita; [2]): 15% | mortality at 400 ppm (Meloidogyne incognita; [2]): 22% | mortality at 50 ppm (Meloidogyne incognita; 48 h): 21% | mortality at 100 ppm (Meloidogyne incognita; 48 h): 27% | mortality at 200 ppm (Meloidogyne incognita; 48 h): 28% | mortality at 300 ppm (Meloidogyne incognita; 48 h): 37% | mortality at 400 ppm (Meloidogyne incognita; 48 h): 49% | mortality at 50 ppm (Meloidogyne incognita; [3]): 17% | mortality at 100 ppm (Meloidogyne incognita; [3]): 23% | mortality at 200 ppm (Meloidogyne incognita; [3]): 24% | mortality at 300 ppm (Meloidogyne incognita; [3]): 34% | mortality at 400 ppm (Meloidogyne incognita; [3]): 46% | mortality at 50 ppm (Meloidogyne incognita; 72 h): 36% | mortality at 100 ppm (Meloidogyne incognita; 72 h): 43% | mortality at 200 ppm (Meloidogyne incognita; 72 h): 49% | mortality at 300 ppm (Meloidogyne incognita; 72 h): 60% | mortality at 400 ppm (Meloidogyne incognita; 72 h): 74% | mortality at 50 ppm (Meloidogyne incognita; [4]): 32% | mortality at 100 ppm (Meloidogyne incognita; [4]): 39% | mortality at 200 ppm (Meloidogyne incognita; [4]): 46% | mortality at 300 ppm (Meloidogyne incognita; [4]): 57% | mortality at 400 ppm (Meloidogyne incognita; [4]): 72% | mortality at 50 ppm (Meloidogyne incognita; 120 h): 58% | mortality at 100 ppm (Meloidogyne incognita; 120 h): 65% | mortality at 200 ppm (Meloidogyne incognita; 120 h): 67% | mortality at 300 ppm (Meloidogyne incognita; 120 h): 84% | mortality at 400 ppm (Meloidogyne incognita; 120 h): 97% | mortality at 50 ppm (Meloidogyne incognita; [5]): 54% | mortality at 100 ppm (Meloidogyne incognita; [5]): 62% | mortality at 200 ppm (Meloidogyne incognita; [5]): 64% | mortality at 300 ppm (Meloidogyne incognita; [5]): 83% | mortality at 400 ppm (Meloidogyne incognita; [5]): 97% | mortality at 50 ppm (Meloidogyne incognita; 168 h): 81% | mortality at 100 ppm (Meloidogyne incognita; 168 h): 86% | mortality at 200 ppm (Meloidogyne incognita; 168 h): 91% | mortality at 300 ppm (Meloidogyne incognita; 168 h): 100% | mortality at 400 ppm (Meloidogyne incognita; 168 h): 100% | mortality at 50 ppm (Meloidogyne incognita; [6]): 79% | mortality at 100 ppm (Meloidogyne incognita; [6]): 84% | mortality at 200 ppm (Meloidogyne incognita; [6]): 89% | mortality at 300 ppm (Meloidogyne incognita; [6]): 100% | mortality at 400 ppm (Meloidogyne incognita; [6]): 100%
